From the supplement of paper PMC10307832

Columns and labels:
Assay in all cases: relative viability (nuclei count vs DMSO), 5 days (fraction); higher = more cells survive
[1] = compound: C/C(=N\NC(=S)N1CCC1)/C2=CC=CC=N2 + C[C@]1(O)C[C@@H](c2nc(-c3ccc4ccc(-c5ccccc5)nc4c3)c3c(N)nccn32)C1 [Linsitinib] (partner 1 µM)
In short: (§1)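 Medians of duplicate plates are given as relative viability. That measure is the nuclei count in treated wells divided by the count in vehicle wells. Counts were taken on 4× images of lung cancer cell lines in 1536-well plates, 5 days after pin-tool dosing the day after seeding with one drug alone or a fixed anchor-drug dose plus five library-drug doses (not always all listed) in √10 steps.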

[2] = compound: C/C(=N\NC(=S)N1CCC1)/C2=CC=CC=N2 + O=C(c1cc(Cc2n[nH]c(=O)c3ccccc23)ccc1F)N1CCN(C(=O)C2CC2)CC1 [Olaparib] (partner 8 µM)
In short: as §1

[3] = compound: C/C(=N\NC(=S)N1CCC1)/C2=CC=CC=N2 + O=C(CCCCCCC(=O)Nc1ccccc1)NO [Vorinostat] (partner 1 µM)
In short: as §1

[4] = compound: C/C(=N\NC(=S)N1CCC1)/C2=CC=CC=N2 + Nc1nc2[nH]cc(CCc3ccc(C(=O)N[C@@H](CCC(=O)O)C(=O)O)cc3)c2c(=O)[nH]1 [Pemetrexed] (partner 0.2 µM)
In short: as §1

Cell Line	relative viability ([1]; first compound 0.05 µM)	relative viability ([1]; first compound 0.1581 µM)	relative viability ([1]; first compound 0.5 µM)	relative viability ([1]; first compound 1.581 µM)	relative viability ([1]; first compound 5 µM)	relative viability ([2]; first compound 0.05 µM)	relative viability ([2]; first compound 0.1581 µM)	relative viability ([2]; first compound 0.5 µM)	relative viability ([2]; first compound 1.581 µM)	relative viability ([2]; first compound 5 µM)	relative viability ([3]; first compound 0.05 µM)	relative viability ([3]; first compound 0.1581 µM)	relative viability ([3]; first compound 0.5 µM)	relative viability ([3]; first compound 1.581 µM)	relative viability ([3]; first compound 5 µM)	relative viability ([4]; first compound 0.05 µM)	relative viability ([4]; first compound 0.1581 µM)	relative viability ([4]; first compound 0.5 µM)	relative viability ([4]; first compound 1.581 µM)	relative viability ([4]; first compound 5 µM)
PC-3 [JPC-3]	0.647	0.973	0.469	0.313	0.311	0.581	0.506	0.432	0.382	0.351	0.338	0.436	0.357	0.269	0.196	0.394	0.464	0.308	0.265	0.237
PC-14	0.0952	0.125	0.12	0.0874	0.117	0.0569	0.064	0.0532	0.0383	0.0401	0.0311	0.0568	0.041	0.041	0.0331	0.0492	0.0611	0.0691	0.0506	0.0521
RERF-LC-KJ	0.233	0.253	0.227	0.243	0.229	0.255	0.248	0.274	0.271	0.255	0.214	0.207	0.19	0.21	0.208	0.211	0.231	0.235	0.191	0.222
SK-LU-1	0.274	0.231	0.224	0.202	0.21	0.162	0.175	0.22	0.135	0.15	0.21	0.244	0.242	0.219	0.272	0.293	0.28	0.282	0.187	0.246
SK-MES-1	0.269	0.236	0.225	0.205	0.183	0.198	0.213	0.162	0.174	0.164	0.198	0.208	0.182	0.177	0.183	0.248	0.258	0.23	0.177	0.207
SW 1573	0.0916	0.123	0.113	0.152	0.0935	0.0806	0.0899	0.138	0.0631	0.0687	0.0949	0.115	0.145	0.0758	0.0799	0.0863	0.149	0.169	0.0609	0.0817
UMC-11	0.369	0.238	0.205	0.169	0.161	0.163	0.122	0.137	0.131	0.106	0.168	0.14	0.146	0.134	0.139	0.221	0.169	0.159	0.141	0.138
